We go through 43 compounds from patent US20060223879A1, “Non-steroidal farnesoid x receptor modulators” (priority 2002, published 2006).

The test has as its target T1, FXR (Homo sapiens, UniProt Q96RI1).
T1 construct: using a full length FXR on a natural response element; expressed in transfected cells
T1 sequence (Q96RI1 1-486): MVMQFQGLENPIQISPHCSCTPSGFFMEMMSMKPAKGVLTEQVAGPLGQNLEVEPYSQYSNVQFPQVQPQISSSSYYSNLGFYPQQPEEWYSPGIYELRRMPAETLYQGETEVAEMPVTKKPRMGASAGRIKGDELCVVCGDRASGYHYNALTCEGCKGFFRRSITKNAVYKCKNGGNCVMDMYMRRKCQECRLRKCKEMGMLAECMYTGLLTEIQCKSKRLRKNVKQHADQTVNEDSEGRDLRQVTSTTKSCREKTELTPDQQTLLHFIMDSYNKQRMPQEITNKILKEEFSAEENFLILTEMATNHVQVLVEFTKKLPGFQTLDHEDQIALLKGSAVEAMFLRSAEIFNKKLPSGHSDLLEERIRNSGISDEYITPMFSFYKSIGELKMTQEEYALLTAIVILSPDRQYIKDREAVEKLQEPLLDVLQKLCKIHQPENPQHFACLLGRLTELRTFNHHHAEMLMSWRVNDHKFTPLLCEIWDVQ
Kind of test: cell-based transcription assay, FXR responsive promoter linked to a luciferase reporter. More on the design: RE: scale not given here. The conditions noted are these: for RE: RE not defined in the source. An excerpt:
In addition to ensuring that only cell permeable compounds were selected for further optimization, this approach allows for the detection of FXR activation in a natural system (i.e., correct folding of the protein and in the presence of a complete compliment of co-activators and co-repressors).
The feasibility of creating high throughput screens (XIS) for ORs was explored using FXR as a candidate orphan receptor (OR) with a known activator, chenodeoxycholic acid (CDCA) as a ligand. The screen is based on the co-transfection of a full-length receptor with the reporter vector containing a natural hormone response element under a minimal eukaryotic promoter. […] Using this 384-well format, the high throughput screening (HTS) approach to FXR as a candidate OR was employed. […] A central question in the feasibility studies is whether this library is suitable for screening for nuclear receptor ligands. Samples of this library were first reformatted into a 384-well format and then subjected to the FXR cell-based assays described above and assessed for FXR-mediated transcriptional activity. Cells were exposed to approximately 10 μM of sample for 18 hrs prior to washing and luciferase analysis.
EC50 values were determined with Prism 3.0 software via the activity of the subject compound in the previously described cell based assay.
In general terms: Reporter assays use an easily measured gene product as a stand-in for the process of interest.

Setting [1] is: Tables 1-15, FXR activation, cell-based reporter assay, read-out: EC50.
[2] abbreviates: library screening hits and leads, read-out: activity (EC50).
Where [3] appears, read: FXR activation, cell-based reporter assay, read-out: EC50.

Where “and” joins values, the source holds several entries; their conditions need not be identical. Identical values can stand only once. Like-named read-outs stand apart in the source and are kept apart here. A value given as a limit tells only on which side of the number the result lay.

Consider `COC(=O)/C=C/c1cccc(N(Cc2ccc(/C=C/c3c(C)cc(C)cc3C)cc2)C(=O)NC(C)C)c1` [Compound 197], for which the EC50 under setting [1] amounted to 431 nM. The same compound registered an RE (Tables 1-15) of 0.14.

For the compound `COc1cc(CN(CC(C)C)C(=O)c2ccccc2)cc2c1OC(C)(C)C=C2` [Compound 20], under setting [2], the 50% effective concentration (EC50) lay within 5000 to 10000 nM. Turning to `COC(=O)/C=C/c1cccc(N(Cc2ccc3c(c2OC)OC(C)(C)C=C3)C(=O)C2CCCCC2)c1` [Compound 65], the EC50 under setting [3] is 358 nM and 348 nM. This compound also yielded an RE (Tables 1-15) of 0.40. In the case of `COC(=O)/C=C/c1cccc(N(Cc2ccc(Br)cc2)C(=O)C2CCCCC2)c1` [Compound 112], under setting [1], the EC50 is over 1000 nM. The compound also returned an RE (Tables 1-15) of 0.28. As for `COC(=O)/C=C/c1cccc(N(Cc2ccc3c(c2OC)OC(C)(C)C=C3)C(=S)NCc2ccccc2)c1` [Compound 84], the “FXR activation (in words)” value (cell-based reporter assay) is “inactive”. In the case of `COC(=O)/C=C/c1cccc(N(Cc2ccc(-c3ccc(F)c(Cl)c3)cc2)C(=O)C2CCCCC2)c1` [Compound 247], the EC50 under setting [1] was found to be 66 nM. The compound further returned an RE (Tables 1-15) of 1.67. Also, the “FXR activation (in words)” value (cell-based reporter assay) is “excellent activity”. Take `COC(=O)/C=C/c1cccc(N(Cc2ccc(/C=C/C(=O)OC(C)(C)C)cc2)C(=O)c2ccco2)c1` [Compound 144]: the EC50 by setting is: under setting [3], 127 to 250 nM and 205 to 236 nM; under setting [1], 205 nM. Further, the RE (Tables 1-15) is on record as 1.93.

As to `COC(=O)C=Cc1cccc(N(Cc2ccc(C=CC(=O)N(C)C)cc2)C(=O)C2CCCCC2)c1` [Compound 154], the EC50 under setting [1] was over 1000 nM. For the same compound, the RE (Tables 1-15) is 0.66. `COC(=O)C=Cc1cccc(N(Cc2ccc(C=Cc3ccccn3)cc2)C(=O)C2CCCCC2)c1` [Compound 207]: under setting [3], the EC50 was 309 nM. The same compound had an RE (Tables 1-15) of 0.61.

As to `CNC(=O)/C=C/c1cccc(N(Cc2ccc3c(c2OC)OC(C)(C)C=C3)C(=O)C2CC2)c1` [Compound 38], the “FXR activation (in words)” value (cell-based reporter assay) is “inactive”.

Take `COC(=O)C=Cc1cccc(N(Cc2ccc(C=CC(=O)OC(C)C)cc2)C(=O)C2CCCCC2)c1` [Compound 152]: under setting [1], the EC50 was found to be 163 nM. The RE (Tables 1-15) worked out at 1.97. For `COC(=O)/C=C/c1cccc(N(Cc2ccc3c(c2OC)OC(C)(C)C=C3)C(=O)c2ccccc2)c1` [Compound 68], the EC50 under setting [3] came to 1000 nM and the EC50 under setting [1] was over 1000 nM. Moreover, where the note is “Tables 1-15”, the RE is recorded as 0.83. For the compound `COC(=O)/C=C/c1cccc(N(Cc2ccc(-c3ccccc3OC)cc2)C(=O)C(C)C)c1` [Compound 219], the EC50 under setting [1] is 377 nM. Also, the RE (Tables 1-15) is recorded as 0.28.

With `CCOc1cccc(-c2ccc(CN(C(=O)C(C)C)c3cccc(/C=C/C(=O)OC)c3)cc2)c1` [Compound 227], the EC50 under setting [1] stood at 173 nM. Moreover, the RE (Tables 1-15) was determined as 1.03. For `COC(=O)/C=C/c1cccc(N(Cc2cc(OC)cc(OC)c2)C(=O)C2CCCCC2)c1` [Compound 118], the concentration for a half-maximal effect (EC50) under setting [3] stood at 606 nM. Regarding `COc1c(CN(C(=O)C2CCCCC2)c2ccccc2)ccc2c1OC(C)(C)C=C2` [Compound 27], the “FXR activation (in words)” value (cell-based reporter assay) is reported as “among the most active at this stage”. Moreover, the EC50 under setting [2] is 5000 to 10000 nM.

For the compound `CCOCC=Cc1cccc(N(Cc2ccc(C=CC(=O)OC(C)(C)C)cc2)C(=O)C2CCCCC2)c1` [Compound 137], under setting [3], the EC50 amounted to 220 nM. The RE (Tables 1-15) is recorded as 1.74. As for `COC(=O)/C=C/c1cccc(N(Cc2ccc(-c3cc(Cl)ccc3OC)cc2)C(=O)C(C)C)c1` [Compound 242], under setting [1], the EC50 turned out to be 226 nM. This compound also displayed an RE (Tables 1-15) of 0.79. For the compound `COC(=O)/C=C/c1cccc(N(Cc2ccc(-c3ccc(C)cc3)cc2)C(=O)NC(C)C)c1` [Compound 237], under setting [1], the EC50 was 449 nM. Where the note is “Tables 1-15”, the RE worked out at 0.80.

For `COC(=O)/C=C/c1cccc(N(Cc2ccc(-c3ccc(SC)cc3)cc2)C(=O)NC(C)C)c1` [Compound 217], under setting [1], the EC50 worked out at 178 nM. Under “Tables 1-15”, this compound gave an RE of 0.23. Consider `COC(=O)/C=C/c1cccc(N(Cc2ccc(-c3ccc(SC)cc3)cc2)C(=O)C2CCCCC2)c1` [Compound 125], for which the EC50 reads like this: under setting [3], 69 nM; under setting [1], 89 nM. For the same compound, the RE (Tables 1-15) is 1.74. The “FXR activation (in words)” value (cell-based reporter assay) is reported as “excellent activity”.

Regarding `COC(=O)/C=C/c1cccc(N(Cc2ccc(-c3cc(Cl)cc(Cl)c3)cc2)C(=O)C(C)C)c1` [Compound 221], under setting [1], the EC50 stood at 561 nM. The same compound returned an RE (Tables 1-15) of 0.54. For `COC(=O)/C=C/c1cccc(N(Cc2ccc(-c3ccccc3OC)cc2)C(=O)C2CCCCC2)c1` [Compound 218], under setting [1], the 50% effective concentration (EC50) turned out to be 399 nM. This compound also showed an RE (Tables 1-15) of 0.40. Taken in the same sequence, the figures for `COC(=O)/C=C/c1cccc(N(Cc2ccc(/C=C/c3cccc(C(F)(F)F)c3)cc2)C(=O)C(C)C)c1` [Compound 187] were 267 nM and 0.70.

As to `COC(=O)/C=C/c1cccc(N(Cc2ccc(/C=C/C(=O)OC(C)(C)C)cc2)C(=O)C2CC2)c1` [Compound 140], the EC50 is 127 to 250 nM under setting [3] and 250 nM under setting [1]. In addition, the RE (Tables 1-15) was determined as 1.88.

In the case of `COC(=O)/C=C/c1cccc(N(C)C(=O)C2CCCCC2)c1` [Compound 147], the EC50 under setting [1] was over 1000 nM. The compound also displayed an RE (Tables 1-15) of 0.09. Turning to `COc1cc(CN(CC(C)C)C(=O)C2CCCCC2)cc2c1OC(C)(C)C=C2` [Compound 16], the EC50 under setting [2] fell in the range of 5000 to 10000 nM. Same read-out and setting: next, `COc1cc(CN(Cc2ccccc2)C(=O)NC2CCCC2)cc2c1OC(C)(C)C=C2` [Compound 18]: 5000 to 10000 nM; `COc1c(CN(C(=O)c2ccccc2C(=O)O)c2ccccc2)ccc2c1OC(C)(C)C=C2` [Compound 22]: 5000 to 10000 nM.

`COC(=O)/C=C/c1cccc(N(Cc2ccc(-c3cccc(Cl)c3)cc2)C(=O)C(C)C)c1` [Compound 233]: the “FXR activation (in words)” value (cell-based reporter assay) is recorded as “excellent activity”. For the compound `COC(=O)/C=C/c1cccc(N(Cc2ccc(-c3ccc(F)c(F)c3)cc2)C(=O)NC(C)C)c1` [Compound 215], under setting [1], the EC50 came to 8180 nM. In addition, where the note is “Tables 1-15”, the RE amounted to 0.23.

On to `COC(=O)C=Cc1cccc(N(Cc2ccc(C=Cc3scnc3C)cc2)C(=O)C(C)C)c1` [Compound 211], for which, under setting [1], the EC50 was found to be 228 nM. This compound also gave an RE (Tables 1-15) of 0.32. Take `COC(=O)/C=C/c1cccc(N(Cc2ccccc2/C=C/C(=O)OC(C)(C)C)C(=O)C2CCCCC2)c1` [Compound 109]: where the note is “cell-based reporter assay”, the “FXR activation (in words)” value is given as “only micromolar potency”. For `COC(=O)/C=C/c1cccc(N(Cc2ccc(-c3cc(Cl)ccc3OC)cc2)C(=O)C2CCCCC2)c1` [Compound 241], the EC50 under setting [1] came to 233 nM. The compound further registered an RE (Tables 1-15) of 1.16. Consider `COC(=O)C=Cc1cccc(N(Cc2ccc(C=CCOc3ccccc3)cc2)C(=O)C2CCCCC2)c1` [Compound 158], for which the EC50 under setting [1] was over 1000 nM. The same compound returned an RE (Tables 1-15) of 0.64. The “FXR activation (in words)” value (cell-based reporter assay) is given as “only micromolar activity”. Turning to `COC(=O)/C=C/c1cccc(N(Cc2ccc(-c3cccc(OC(F)(F)F)c3)cc2)C(=O)C2CCCCC2)c1` [Compound 253], the EC50 under setting [1] came out at 420 nM. This compound also returned an RE (Tables 1-15) of 0.84. In the same order, the values of `COC(=O)/C=C/c1cccc(N(Cc2ccc(/C=C/c3cccc(F)c3)cc2)C(=O)NC(C)C)c1` [Compound 203] are 467 nM and 0.61. With `COC(=O)/C=C/c1cccc(N(Cc2ccc3c(c2OC)OC(C)(C)[C@@H](O)[C@H]3O)C(=O)c2ccccc2)c1` [Compound 93], where the note is “cell-based reporter assay”, the “FXR activation (in words)” value is on record as “did not improve the activity”.

Regarding `COC(=O)C=Cc1cccc(N(Cc2ccc3c(c2OC)OC(C)(C)C(OC(C)=O)C3N2CCCCC2)C(=O)c2ccccc2)c1` (centres unmarked) [Compound 101], the “FXR activation (in words)” value (cell-based reporter assay) was “Nor did the addition of H-bond acceptors such as in 89, 90, 95, 99 and 101 improve the ability of the parent compound 68 to activate FXR”.

Under “Tables 1-15”, `COC(=O)/C=C/c1cccc(N(Cc2cc(OC)cc(OC)c2)C(=O)C2CCCCC2)c1` [Compound 116] gave an RE of 0.11. For `COC(=O)/C=C/c1cccc(N(Cc2ccc(-c3c(OC)cccc3OC)cc2)C(=O)NC(C)C)c1` [Compound 258], under setting [1], the EC50 is 561 nM. This compound returned an RE (Tables 1-15) of 0.10. Turning to `COC(=O)/C=C/c1ccc(N(Cc2ccc3c(c2OC)OC(C)(C)C=C3)C(=O)C2CC2)cc1` [Compound 53], the “FXR activation (in words)” value (cell-based reporter assay) is recorded as “does not activate FXR under the conditions tested”. In the case of `COC(=O)/C=C/c1cccc(N(Cc2ccc(-c3cccc(OC)c3)cc2)C(=O)C(C)C)c1` [Compound 224], the EC50 under setting [1] was determined as 72 nM. Moreover, for the setting “cell-based reporter assay”, the “FXR activation (in words)” value is “excellent activity”.

A word on the EC50: it is the concentration that produces a half-maximal response.
